Data taken from patent publication US12540118B2, “Dendrene amide compound, bactericide and use thereof” (Jiangsu Flag Chemical Industry Co., Ltd., priority 2020, dated 2026).
Where two headings read alike, the source gives them in different places.

How the values were obtained:
Erysiphe graminis = Erysiphe graminis potting method; type: in vivo; settings: for pest or weed control at 100 µg/mL: Blumeria graminis, read-out: Erysiphe graminis control rating
Description: The fungicidal activity of the control agents and target compounds are determined. The test and investigation method refers to SOP-SC-1116 Erysiphe graminis potting method in disinfectant rolls written by KANGZHUO and GUBAOGEN in “Standard operation specification for testing biological activity of pesticides”.

Sphaerotheca fuliginea [1] = assay: Sphaerotheca fuliginea potting method; type: in vivo; settings: 100 mg/L; for pest or weed control at 100 µg/mL: Podosphaera fuliginea, read-out: Sphaerotheca fuliginea control rating
Description: The fungicidal activity of the control agents and target compounds are determined. The test and investigation method refers to SOP-SC-1101 sphaerotheca fuliginea potting method in disinfectant rolls written by KANGZHUO and GUBAOGEN in “Standard operation specification for testing biological activity of pesticides”.

succinate dehydrogenase = molecular target: T1, succinate dehydrogenase (Sus scrofa, UniProt A5GZW8+D0VWV4+Q007T0); assay: Enzyme activity assay, succinate dehydrogenase (DCIP reduction); type: biochemical, porcine; settings: read-out: Inhibitors (10 μM, SQR)
T1 construct: isolated from porcine hearts; from tissue; host or cells: porcine heart
Method in brief: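 Porcine heart succinate dehydrogenase (2 nM) in 100 mM sodium phosphate pH 7.4, 0.3 mM EDTA, 20 mM sodium succinate and 53 μM DCIP at 23° C with stirring. DCIP reduction followed at 600 nm (ε 21 mM^−1 cm^−1); linear slope minus baseline gives initial rate.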

Fusarium fujikura [2] = assay: Protective activity against rice bakanae disease; type: in vivo; settings: 5 μg/mL, solvent DMSO
Source text: (§1) Test of protective activity and therapeutic activity of Compound 1 against rice bakanae disease.
(§2) The test and investigation method refers to SOP-SC-1112 rice bakanae disease potting method in disinfectant rolls written by KANGZHUO and GUBAOGEN in “Standard operation specification for testing biological activity of pesticides”.
(§3) The phenamacril is a mainstream medicament for preventing and treating the rice bakanae disease at present, resistant strains are more and more along with long-time use, and […] strains showing sensitivity and one strain showing resistance to the […] are selected as test strains.
(§4) Four Fusarium fujikura SX18-32, SX18-50, SX18-59 and SX18-63 are selected for testing strains, and the current mainstream commercial bactericide phenamacril is selected as a positive control. Wherein SX18-32, SX18-50 and SX18-59 show sensitivity to phenamacril and SX18-63 show resistance to phenamacril.

Fusarium fujikura [3] = assay: Therapeutic activity against rice bakanae disease; type: in vivo; settings: 5 μg/mL, solvent DMSO
Source text: as §1, §2, §3, §4

Phytophthora infestans = type: cell-based
Sphaerotheca fuliginea [4] = assay: Field test of sphaerotheca fuliginea; type: in vivo; settings: 100 mg/L
Description: The test is carried out according to GB/T17980.30-2000 of pesticide field efficacy test guidelines. The survey method is to randomly take four points for each cell and survey all leaves of 2 plants per point. And investigating the sphaerotheca fuliginea incidence before the first application, and investigating the sphaerotheca fuliginea incidence 7 and 14 days after the second application respectively, and calculating the disease index and the controlling effect.

Alternaria solani = assay: Mycelial growth rate method; type: cell-based
Corn big spot = assay: Mycelial growth rate method; type: cell-based
Sclerotinia sclerotiorum = assay: Mycelial growth rate method; type: cell-based
Phytophthora capsici = assay: Mycelial growth rate method; type: cell-based
[5] = test system: Fusarium wilt of water melon; assay: Mycelial growth rate method; type: cell-based
Gibberella zeae = type: cell-based
Alternaria alternata = assay: Mycelial growth rate method; type: cell-based
Rhizoctonia cerealis = assay: Mycelial growth rate method; type: cell-based

T1 sequence (Q0QF01 43-664 partner): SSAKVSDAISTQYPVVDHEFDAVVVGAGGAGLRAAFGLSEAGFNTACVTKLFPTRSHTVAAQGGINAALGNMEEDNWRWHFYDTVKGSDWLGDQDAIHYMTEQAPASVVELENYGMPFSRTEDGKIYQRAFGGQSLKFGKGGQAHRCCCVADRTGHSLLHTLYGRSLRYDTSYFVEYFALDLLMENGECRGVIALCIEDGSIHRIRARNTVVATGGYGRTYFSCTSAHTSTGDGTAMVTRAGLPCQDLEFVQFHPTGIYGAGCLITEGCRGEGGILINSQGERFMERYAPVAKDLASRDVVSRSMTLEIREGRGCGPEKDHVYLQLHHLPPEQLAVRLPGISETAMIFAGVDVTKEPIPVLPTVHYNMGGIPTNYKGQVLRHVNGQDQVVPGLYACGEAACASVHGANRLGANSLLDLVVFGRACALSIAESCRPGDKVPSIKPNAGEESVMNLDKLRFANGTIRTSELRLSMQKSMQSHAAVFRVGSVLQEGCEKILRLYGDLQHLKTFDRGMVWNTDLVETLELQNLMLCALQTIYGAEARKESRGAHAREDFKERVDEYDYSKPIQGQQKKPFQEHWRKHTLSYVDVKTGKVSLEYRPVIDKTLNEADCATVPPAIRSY
T1 sequence (Q007T0 29-280): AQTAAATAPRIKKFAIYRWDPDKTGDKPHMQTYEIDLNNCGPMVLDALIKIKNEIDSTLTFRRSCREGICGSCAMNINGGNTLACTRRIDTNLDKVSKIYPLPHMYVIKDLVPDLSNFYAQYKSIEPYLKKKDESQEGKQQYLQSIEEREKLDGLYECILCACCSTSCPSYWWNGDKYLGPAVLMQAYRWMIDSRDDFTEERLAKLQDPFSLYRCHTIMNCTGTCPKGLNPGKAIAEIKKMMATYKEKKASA
T1 sequence (D0VWV4 30-169): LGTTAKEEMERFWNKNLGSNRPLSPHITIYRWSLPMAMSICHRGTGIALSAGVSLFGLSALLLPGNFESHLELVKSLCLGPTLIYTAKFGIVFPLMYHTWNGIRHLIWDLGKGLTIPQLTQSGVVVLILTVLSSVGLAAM
T1 sequence (A5GZW8 57-159 limits assumed): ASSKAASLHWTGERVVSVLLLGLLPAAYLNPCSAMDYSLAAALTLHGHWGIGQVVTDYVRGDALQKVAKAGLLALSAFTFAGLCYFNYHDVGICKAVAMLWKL

Question: Which results are given for `CC(C(=C(Cl)Cl)c1ccc(C(F)(F)F)cc1Cl)N(C(=O)c1c(C(F)F)nn(C)c1F)C1CC1` (stereo not shown) [Compound 211]?
Answer: pest or weed control at 100 µg/mL (Erysiphe graminis; 100 mg/L): 80 to 100%; pest or weed control at 100 µg/mL (Sphaerotheca fuliginea [1]): 80 to 100%; inhibition at 10 µM (succinate dehydrogenase): > 90%

Question: For `CC(C(=C(Cl)Cl)c1ccc(S(C)(=O)=O)cc1Cl)N(C(=O)c1c(C(F)F)nn(C)c1F)C1CC1` (stereo not shown) [Compound 212], which pest or weed control at 100 µg/mL (Erysiphe graminis; 100 mg/L) is on record?
Answer: 80 to 100%

Question: What about the pest or weed control at 100 µg/mL (Sphaerotheca fuliginea [1]) of the same molecule?
Answer: 80 to 100%

Question: And the inhibition at 10 µM (succinate dehydrogenase)?
Answer: > 90%

Question: What does the source list for `CC(C(=C(Cl)Cl)c1cccc(S(C)(=O)=O)c1)N(C(=O)c1c(C(F)F)nn(C)c1F)C1CC1` (stereo not shown) [Compound 213]?
Answer: pest or weed control at 100 µg/mL (Erysiphe graminis; 100 mg/L): 80 to 100%; pest or weed control at 100 µg/mL (Sphaerotheca fuliginea [1]): 80 to 100%; inhibition at 10 µM (succinate dehydrogenase): > 90%

Question: `CC(C(=C(Cl)Cl)c1ccccc1S(C)(=O)=O)N(C(=O)c1c(C(F)F)nn(C)c1F)C1CC1` (stereo not shown) [Compound 214] was tested. Which pest or weed control at 100 µg/mL (Erysiphe graminis; 100 mg/L) did it give?
Answer: 80 to 100%

Question: And the pest or weed control at 100 µg/mL (Sphaerotheca fuliginea [1])?
Answer: 80 to 100%

Question: What about the inhibition at 10 µM (succinate dehydrogenase) of the same molecule?
Answer: > 90%

Question: Which pest or weed control at 100 µg/mL (Erysiphe graminis; 100 mg/L) does the source give for `CC(C(=C(Cl)Cl)c1cc(S(C)(=O)=O)ccc1Cl)N(C(=O)c1c(C(F)F)nn(C)c1F)C1CC1` (stereo not shown) [Compound 215] here?
Answer: 80 to 100%

Question: And the pest or weed control at 100 µg/mL (Sphaerotheca fuliginea [1])?
Answer: 80 to 100%

Question: What about the inhibition at 10 µM (succinate dehydrogenase) of the same molecule?
Answer: > 90%

Question: Which results are given for `CCS(=O)(=O)c1ccc(C(=C(Cl)Cl)C(C)N(C(=O)c2c(C(F)F)nn(C)c2F)C2CC2)cc1` (stereo not shown) [Compound 216]?
Answer: pest or weed control at 100 µg/mL (Erysiphe graminis; 100 mg/L): 80 to 100%; pest or weed control at 100 µg/mL (Sphaerotheca fuliginea [1]): 80 to 100%; inhibition at 10 µM (succinate dehydrogenase): > 90%

Question: With `CCS(=O)(=O)c1cccc(C(=C(Cl)Cl)C(C)N(C(=O)c2c(C(F)F)nn(C)c2F)C2CC2)c1` (stereo not shown) [Compound 217] as the molecule, how does the pest or weed control at 100 µg/mL (Erysiphe graminis; 100 mg/L) read?
Answer: 80 to 100%

Question: And the pest or weed control at 100 µg/mL (Sphaerotheca fuliginea [1])?
Answer: 80 to 100%

Question: What about the inhibition at 10 µM (succinate dehydrogenase) of the same molecule?
Answer: > 90%

Question: With `CC(C(=C(Cl)Cl)c1ccc(C#CC2CC2)cc1Cl)N(C(=O)c1c(C(F)F)nn(C)c1F)C1CC1` (stereo not shown) [Compound 218] as the molecule, how does the pest or weed control at 100 µg/mL (Erysiphe graminis; 100 mg/L) read?
Answer: 80 to 100%

Question: What about the pest or weed control at 100 µg/mL (Sphaerotheca fuliginea [1]) of the same molecule?
Answer: 80 to 100%

Question: And the inhibition at 10 µM (succinate dehydrogenase)?
Answer: > 90%

Question: Which pest or weed control at 100 µg/mL (Erysiphe graminis; 100 mg/L) does the source give for `CC(C(=C(Cl)Cl)c1ccc(C#CC2CC2)cc1F)N(C(=O)c1c(C(F)F)nn(C)c1F)C1CC1` (stereo not shown) [Compound 219] here?
Answer: 80 to 100%

Question: And the pest or weed control at 100 µg/mL (Sphaerotheca fuliginea [1])?
Answer: 80 to 100%

Question: And the inhibition at 10 µM (succinate dehydrogenase)?
Answer: > 90%

Question: Which results are given for `CCOC(=O)C(C#N)=C(N)c1ccccc1` [Phenamacril, reference compound]?
Answer: Protective activity (Fusarium fujikura [2]; strain SX18-32 (S)): 83.6%; Protective activity (Fusarium fujikura [2]; strain SX18-59 (S)): 58.8%; Protective activity (Fusarium fujikura [2]; strain SX18-63 (R)): 19.6%; Therapeutic activity (Fusarium fujikura [3]; strain SX18-32 (S)): 23.8%; Therapeutic activity (Fusarium fujikura [3]; strain SX18-59 (S)): 50.0%; Therapeutic activity (Fusarium fujikura [3]; strain SX18-59 (S), listed as phenamacril): about 50%; Therapeutic activity (Fusarium fujikura [3]; strain SX18-63 (R)): 0%; Therapeutic activity (Fusarium fujikura [3]; strain SX18-63 (R), listed as phenamacril): almost no therapeutic activity

Question: For `CON(C(=O)c1cn(C)nc1C(F)F)C(C)Cc1c(Cl)cc(Cl)cc1Cl` (stereo not shown) [Pydiflumetofen, reference compound], which “Inhibition ratio (%) Phytophthora infestans” value (Phytophthora infestans; 1.5625 μg/mL) is on record?
Answer: A (80% ≤ A ≤ 100%)

Question: And the “Inhibition ratio (%) Phytophthora infestans” value (Phytophthora infestans; 6.25 μg/mL)?
Answer: A (80% ≤ A ≤ 100%)

Question: What about the “Inhibition ratio (%) Phytophthora infestans” value (Phytophthora infestans; 25 μg/mL) of the same molecule?
Answer: A (80% ≤ A ≤ 100%)

Question: What about the Controlling effect % (Sphaerotheca fuliginea [4]) of the same molecule?
Answer: 92%

Question: And the “Inhibition ratio (%) Alternaria solani” value (Alternaria solani; 1.5625 μg/mL)?
Answer: A (80% ≤ A ≤ 100%)

Question: What about the “Inhibition ratio (%) Alternaria solani” value (Alternaria solani; 6.25 μg/mL) of the same molecule?
Answer: A (80% ≤ A ≤ 100%)

Question: What about the “Inhibition ratio (%) Alternaria solani” value (Alternaria solani; 25 μg/mL) of the same molecule?
Answer: A (80% ≤ A ≤ 100%)

Question: What about the “Inhibition ratio (%) Corn big spot” value (Corn big spot; 1.5625 μg/mL) of the same molecule?
Answer: A (80% ≤ A ≤ 100%)

Question: What about the “Inhibition ratio (%) Corn big spot” value (Corn big spot; 6.25 μg/mL) of the same molecule?
Answer: A (80% ≤ A ≤ 100%)

Question: And the “Inhibition ratio (%) Corn big spot” value (Corn big spot; 25 μg/mL)?
Answer: A (80% ≤ A ≤ 100%)

Question: What about the “Inhibition ratio (%) Sclerotinia sclerotiorum” value (Sclerotinia sclerotiorum; 1.5625 μg/mL) of the same molecule?
Answer: C (C <70%)

Question: And the “Inhibition ratio (%) Sclerotinia sclerotiorum” value (Sclerotinia sclerotiorum; 6.25 μg/mL)?
Answer: A (80% ≤ A ≤ 100%)

Question: And the “Inhibition ratio (%) Sclerotinia sclerotiorum” value (Sclerotinia sclerotiorum; 25 μg/mL)?
Answer: A (80% ≤ A ≤ 100%)

Question: What about the “Erysiphe graminis control rating” value (Erysiphe graminis; 6.25 mg/L) of the same molecule?
Answer: A (80% ≤ A ≤ 100%)

Question: What about the “Erysiphe graminis control rating” value (Erysiphe graminis; 25 mg/L) of the same molecule?
Answer: A (80% ≤ A ≤ 100%)

Question: And the “Erysiphe graminis control rating” value (Erysiphe graminis; 100 mg/L)?
Answer: A (80% ≤ A ≤ 100%)

Question: What about the “Inhibition ratio (%) Phytophthora capsici” value (Phytophthora capsici; 1.5625 μg/mL) of the same molecule?
Answer: B (70% ≤ B < 80%)

Question: What about the “Inhibition ratio (%) Phytophthora capsici” value (Phytophthora capsici; 6.25 μg/mL) of the same molecule?
Answer: A (80% ≤ A ≤ 100%)

Question: What about the “Inhibition ratio (%) Phytophthora capsici” value (Phytophthora capsici; 25 μg/mL) of the same molecule?
Answer: A (80% ≤ A ≤ 100%)

Question: And the “Sphaerotheca fuliginea control rating” value (Sphaerotheca fuliginea [1])?
Answer: A (80% ≤ A ≤ 100%)

Question: What about the “Inhibition ratio (%) Fusarium wilt of water melon” value (from here on “Inhibition ratio (%) Fusarium wilt”) ([5]; 1.5625 μg/mL) of the same molecule?
Answer: A (80% ≤ A ≤ 100%)

Question: What about the “Inhibition ratio (%) Fusarium wilt” value ([5]; 6.25 μg/mL) of the same molecule?
Answer: A (80% ≤ A ≤ 100%)

Question: And the “Inhibition ratio (%) Fusarium wilt” value ([5]; 25 μg/mL)?
Answer: A (80% ≤ A ≤ 100%)

Question: What about the “Inhibition ratio (%) Gibberella zeae” value (Gibberella zeae; 1.5625 μg/mL) of the same molecule?
Answer: A (80% ≤ A ≤ 100%)

Question: What about the “Inhibition ratio (%) Gibberella zeae” value (Gibberella zeae; 6.25 μg/mL) of the same molecule?
Answer: A (80% ≤ A ≤ 100%)

Question: And the “Inhibition ratio (%) Gibberella zeae” value (Gibberella zeae; 25 μg/mL)?
Answer: A (80% ≤ A ≤ 100%)

Question: And the “Inhibition ratio (%) Alternaria alternata” value (Alternaria alternata; 1.5625 μg/mL)?
Answer: A (80% ≤ A ≤ 100%)

Question: And the “Inhibition ratio (%) Alternaria alternata” value (Alternaria alternata; 6.25 μg/mL)?
Answer: A (80% ≤ A ≤ 100%)

Question: What about the “Inhibition ratio (%) Alternaria alternata” value (Alternaria alternata; 25 μg/mL) of the same molecule?
Answer: A (80% ≤ A ≤ 100%)

Question: And the “Inhibition ratio (%) Rhizoctonia cerealis” value (Rhizoctonia cerealis; 1.5625 μg/mL)?
Answer: A (80% ≤ A ≤ 100%)

Question: And the “Inhibition ratio (%) Rhizoctonia cerealis” value (Rhizoctonia cerealis; 6.25 μg/mL)?
Answer: A (80% ≤ A ≤ 100%)

Question: What about the “Inhibition ratio (%) Rhizoctonia cerealis” value (Rhizoctonia cerealis; 25 μg/mL) of the same molecule?
Answer: A (80% ≤ A ≤ 100%)
